Results: patent US20140328757A1, “COMPOSITIONS COMPRISING ASCORBIC ACID AND AN IMAGING AGENT AND RELATED METHODS” (Lantheus Medical Imaging, Inc., priority 2011, published 2014)
Each block holds one compound with its values, some of them ahead of it.

Legend:
[1] = pH and the chemical integrity (rate of non-radioactive impurity formation) of the non-radioactive congener; format: physicochemical; conditions: ascorbic acid 50 mg/mL, congener 5 μg/mL, ethanol 5%, treated with [18F]NaF
Protocol: (§1) Both chemical integrity and overall stability of a radiopharmaceutical composition is measured through determination of the change in RCP of the labeled compound over time using ITLC or more preferably HPLC. The advantage of using HPLC is that impurities caused by radiolytic degradation may be readily separated from the labeled compound under certain chromatographic conditions. […] Several HPLC methods have been developed for monitoring the stability of radiopharmaceutical compositions of the present invention:
(§2) Analytical HPLC was performed on an Agilent Technologies 1100 LC containing a spectrophotometric detection system. Non-radiochemical impurities were evaluated at 295 nm using a Waters Zorbax SB-C18 column (4.6×50 mm, 1.8 μm) with an 8%/min gradient from 20-100% MeCN containing 0.1% formic acid and 10% H2O at 1 mL/min
The chemical integrity of radiopharmaceutical compositions containing the non-radioactive congener of the imaging agent (2-(tert-butyl)-4-chloro-5-((4-((2-fluoroethoxy)methyl)benzyl)oxy)pyridazin-3(2H)-one) was assessed over a range of pH values. […] The resulting solutions were treated with [^18F]NaF then monitored for changes in chemical purity (non-radioactive impurities) over time using the HPLC methods outlined in Example 5.

[2] = cited from earlier work
[3] = Concentration of ascorbic acid and the stability (radiochemical purity over time) of an imaging agent; format: physicochemical; conditions: pH 5.8
Protocol: (§3) was then collected, diluted with an ascorbic acid solution (10-15 mL), then passed through a C18 Sep-Pak® cartridge, previously conditioned with 10 mL of ethanol followed by 10 mL of an ascorbic acid solution; The imaging agent was retained within the C18 resin matrix and the filtrate discarded. The cartridge was then successively washed with an ascorbic acid solution (10 mL), the filtrate discarded, then absolute ethanol (≦0.5 mL) and the filtrate collected. The resulting ethanol concentrate of the imaging agent was then diluted with an ascorbic acid solution prior to use.
(§4) Both chemical integrity and overall stability of a radiopharmaceutical composition is measured through determination of the change in RCP of the labeled compound over time using ITLC or more preferably HPLC. The advantage of using HPLC is that impurities caused by radiolytic degradation may be readily separated from the labeled compound under certain chromatographic conditions. […]
The stability of radiopharmaceutical compositions containing an imaging agent was assessed over a range of ascorbic acid concentration values. […] Each solution was then utilized in the preparation of the imaging agent described in Example 4, and the resulting compositions monitored for changes in radiochemical purity over time using the HPLC methods described in Example 5.

[4] = pH and the stability (radiochemical purity over time) of an imaging agent; format: physicochemical; conditions: ascorbic acid solutions with higher pH values (pH 5.8 and 6.5) versus more acidic compositions (pH 2.4-4.6)
Protocol: as §3, §4
Analytical HPLC was performed on an Agilent Technologies 1100 LC containing a radiometric detection system. Radiochemical impurities were evaluated using a Berthold radiation detector and a Waters Zorbax SB-C18 column (4.6×50 mm, 1.8 μm) using an isocratic elution (45:55 H2O/MeCN) at 1 mL/min […]
The stability of radiopharmaceutical compositions containing an imaging agent was assessed over a range of pH values. […]

[5] = Stability (radiochemical purity over time by HPLC) of radiopharmaceutical compositions over a range of ascorbic acid and radioactivity concentrations; format: physicochemical; conditions: pH 5.8
Source text: The radiochemical purity (RCP) of a labeled compound (i.e., as in Example 3) is known to be dependent on certain conditions of its preparation including, but not limited to, reaction temperature, solution pH and overall synthesis time. Once prepared with high RCP, the labeled compound is formulated into a radiopharmaceutical composition designed to stabilize the labeled compound over time. Certain radiopharmaceutical compositions of the present invention are effective in maintaining the stability of labeled compounds for up to 12 h.
as §1
Analytical HPLC was performed on an Agilent Technologies 1100 LC containing a radiometric detection system. Radiochemical impurities were evaluated using a Berthold radiation detector and a Waters Zorbax SB-C18 column (4.6×50 mm, 1.8 μm) using an isocratic elution (45:55 H2O/MeCN) at 1 mL/min
as §2
Analytical HPLC was performed on an Agilent Technologies 1100 LC containing both radiometric and spectrophotometric detection systems. Radiochemical impurities were evaluated using a Raytest GabiStar radiation detector and non-radiochemical impurities were evaluated at 295 nm both using a Waters Zorbax SB-C18 column (4.6×50 mm, 1.8 μm) with a 6%/min gradient from 20-50% MeCN, followed by a 1.4%/min gradient from 50-60% MeCN, followed by a 2%/min gradient from 60-70% MeCN each containing 0.1% formic acid and 10% H2O at 1 mL/min.
Analytical HPLC was performed on an Agilent Technologies 1100 LC containing both radiometric and spectrophotometric detection systems. Radiochemical impurities were evaluated using a Raytest GabiStar radiation detector and non-radiochemical impurities were evaluated at 295 nm both using a Waters Zorbax SB-C18 column (4.6×50 mm, 1.8 μm) with a 30%/min gradient from 30-60% MeCN, followed by a 2 min isocratic hold at 60% MeCN, followed by a 5%/min gradient from 60-80% MeCN each containing 0.1% trifluoroacetic acid and 10% H2O at 1 mL/min
Aqueous [^18F]fluoride, as prepared in Example 1, was filtered through an anion exchange column to remove unreacted [^18O]H2O; [^18F]fluoride was retained within the […] resin matrix. The column was then washed with aqueous Et4NHCO3 with transfer to the reaction vessel. The resulting solution was diluted with MeCN then concentrated to dryness using elevated temperature and reduced pressure. The mixture of anhydrous [^18F]Et4NF and Et4NHCO3 thus obtained was treated with the acetonitrile solution of the imaging agent precursor as prepared in Example 2, then warmed to 85-120° C. and maintained 5-20 min. After cooling, the solution was diluted with H2O or H2O/MeCN then directly purified by HPLC using a 45:55 H2O/MeCN eluent. The main product peak was collected and diluted with ascorbic acid (10 mL of a 0.28 M solution; pH 2).
was retained within the C18 resin matrix and the filtrate discarded. The cartridge was successively washed with ascorbic acid (10 mL of a 0.28 M solution in H2O; pH 2), the filtrate discarded, then absolute EtOH (≦0.50 mL), and the filtrate collected. […]

Reduction in the rate of impurity formation (non-radioactive impurities, FIG. 2) ([1]; over the pH range considered (4.0-8.2)): ten-fold reduction
Structure (SMILES): CC(C)(C)n1ncc(OCc2ccc(COCCF)cc2)c(Cl)c1=O [2-(tert-butyl)-4-chloro-5-((4-((2-fluoroethoxy)methyl)benzyl)oxy)pyridazin-3(2H)-one]
Reaction order of formation of certain non-radioactive impurities (FIG. 2) [1]: first order

Structure (SMILES): O=C1O[C@H]([C@@H](O)CO)C(O)=C1O [ascorbic acid]
pKa [2]: about 4.2

RCP (FIG. 3) ([3]; ascorbic acid 20 mg/mL): overall decrease in RCP | Initial RCP and variability in RCP over time (FIG. 3) ([3]; ascorbic acid 200 to 50 mg/mL): do not significantly change | Radiochemical Purity ([5]; 0 h, ascorbic acid 30 mg/mL, 29.5 mCi/mL, Siemens GN module): 100.0% | Radiochemical Purity ([5]; 0 h, ascorbic acid 30 mg/mL, 68.0 mCi/mL, Eckert & Ziegler module): 100.0% | Radiochemical Purity ([5]; 0 h, ascorbic acid 50 mg/mL, 44.8 mCi/mL, Eckert & Ziegler module): 100.0% | Radiochemical Purity ([5]; 0 h, ascorbic acid 50 mg/mL, 47.0 mCi/mL, Siemens GN module): 100.0% | Radiochemical Purity ([5]; 0 h, ascorbic acid 50 mg/mL, 50.0 mCi/mL, Siemens RN module): 100.0% | Radiochemical Purity ([5]; 0 h, ascorbic acid 50 mg/mL, 65.4 mCi/mL, GE MX module): 100.0% | Radiochemical Purity ([5]; 0 h, ascorbic acid 50 mg/mL, 115.9 mCi/mL, Siemens GN module): 99.7% | Radiochemical Purity ([5]; 3 h, ascorbic acid 30 mg/mL, 29.5 mCi/mL, Siemens GN module): 100.0% | Radiochemical Purity ([5]; 3 h, ascorbic acid 30 mg/mL, 68.0 mCi/mL, Eckert & Ziegler module): 97.6% | Radiochemical Purity ([5]; 3 h, ascorbic acid 50 mg/mL, 44.8 mCi/mL, Eckert & Ziegler module): 100.0% | Radiochemical Purity ([5]; 3 h, ascorbic acid 50 mg/mL, 47.0 mCi/mL, Siemens GN module): 100.0% | Radiochemical Purity ([5]; 3 h, ascorbic acid 50 mg/mL, 50.0 mCi/mL, Siemens RN module): 98.2% | Radiochemical Purity ([5]; 3 h, ascorbic acid 50 mg/mL, 65.4 mCi/mL, GE MX module): 100.0% | Radiochemical Purity ([5]; 3 h, ascorbic acid 50 mg/mL, 115.9 mCi/mL, Siemens GN module): 97.1% | Radiochemical Purity ([5]; 6 h, ascorbic acid 30 mg/mL, 29.5 mCi/mL, Siemens GN module): 100.0% | Radiochemical Purity ([5]; 6 h, ascorbic acid 30 mg/mL, 68.0 mCi/mL, Eckert & Ziegler module): 96.7% | Radiochemical Purity ([5]; 6 h, ascorbic acid 50 mg/mL, 44.8 mCi/mL, Eckert & Ziegler module): 100.0% | Radiochemical Purity ([5]; 6 h, ascorbic acid 50 mg/mL, 47.0 mCi/mL, Siemens GN module): 99.2% | Radiochemical Purity ([5]; 6 h, ascorbic acid 50 mg/mL, 50.0 mCi/mL, Siemens RN module): 99.0% | Radiochemical Purity ([5]; 6 h, ascorbic acid 50 mg/mL, 65.4 mCi/mL, GE MX module): 98.7% | Radiochemical Purity ([5]; 6 h, ascorbic acid 50 mg/mL, 115.9 mCi/mL, Siemens GN module): 97.1% | Radiochemical Purity ([5]; 9 h, ascorbic acid 30 mg/mL, 29.5 mCi/mL, Siemens GN module): 100.0% | Radiochemical Purity ([5]; 9 h, ascorbic acid 30 mg/mL, 68.0 mCi/mL, Eckert & Ziegler module): 96.2% | Radiochemical Purity ([5]; 9 h, ascorbic acid 50 mg/mL, 44.8 mCi/mL, Eckert & Ziegler module): 100.0% | Radiochemical Purity ([5]; 9 h, ascorbic acid 50 mg/mL, 47.0 mCi/mL, Siemens GN module): 99.4% | Radiochemical Purity ([5]; 9 h, ascorbic acid 50 mg/mL, 50.0 mCi/mL, Siemens RN module): 98.0% | Radiochemical Purity ([5]; 9 h, ascorbic acid 50 mg/mL, 65.4 mCi/mL, GE MX module): 99.3% | Radiochemical Purity ([5]; 9 h, ascorbic acid 50 mg/mL, 115.9 mCi/mL, Siemens GN module): 96.0% | Radiochemical Purity ([5]; 12 h, ascorbic acid 30 mg/mL, 29.5 mCi/mL, Siemens GN module): 100.0% | Radiochemical Purity ([5]; 12 h, ascorbic acid 30 mg/mL, 68.0 mCi/mL, Eckert & Ziegler module): 96.1% | Radiochemical Purity ([5]; 12 h, ascorbic acid 50 mg/mL, 44.8 mCi/mL, Eckert & Ziegler module): 100.0% | Radiochemical Purity ([5]; 12 h, ascorbic acid 50 mg/mL, 47.0 mCi/mL, Siemens GN module): 99.5% | Radiochemical Purity ([5]; 12 h, ascorbic acid 50 mg/mL, 50.0 mCi/mL, Siemens RN module): 98.2% | Radiochemical Purity ([5]; 12 h, ascorbic acid 50 mg/mL, 65.4 mCi/mL, GE MX module): 96.9% | Radiochemical Purity ([5]; 12 h, ascorbic acid 50 mg/mL, 115.9 mCi/mL, Siemens GN module): 96.0% | Initial RCP and variability in RCP over time ([5]; over 30 to 50 mg/mL ascorbic acid and 30 to 115 mCi/mL): do not significantly change
Structure (SMILES): CC(C)(C)n1ncc(OCc2ccc(COCC[18F])cc2)c(Cl)c1=O [imaging agent, 2-tert-butyl-4-chloro-5-[4-(2-[18F]fluoro-ethoxymethyl)-benzyloxy]-2H-pyridazin-3-one]
Initial RCP and change in RCP over time (FIG. 1) [4]: markedly less initial stability and stability to storage
